Read-outs that look alike come from different tables or passages of the source.
Key:
DENV-1 = experiment: microbe, parasite or virus in culture; format: cell-based, DENV-1 clone D19044_7M; settings: Dengue virus, read-out: EC50 against DENV-1
DENV-3 = experiment: microbe, parasite or virus in culture; format: cell-based, DENV-3 clone DV3syn_4M; settings: Dengue virus, read-out: EC50 against DENV-3
DENV-4 = DENV-4 infection, immunofluorescence assay; format: cell-based; settings: Dengue virus, read-out: EC50 against DENV-4
JEV = experiment: organism not typed; format: cell-based, JEV strain SA14-14-2; settings: read-out: EC50 against JEV
YFV = experiment: microbe, parasite or virus in culture; format: cell-based, YFV vaccine strain 17D; settings: Yellow fever virus, read-out: EC50 against YFV
HCV = experiment: microbe, parasite or virus in culture; format: cell-based, hepatitis C virus genotype 2a JFH1; settings: Hepatitis C virus, Huh-7, 72 h, read-out: EC50 against HCV
HSV-1-eGFP = experiment: microbe, parasite or virus in culture; format: cell-based, herpes simplex virus type 1; settings: Human alphaherpesvirus 1, A549, 48 h, read-out: EC50 against HSV-1-eGFP
VSV-eGFP = experiment: microbe, parasite or virus in culture; format: cell-based; settings: Vesicular stomatitis virus, A549, 24 h, read-out: EC50 against VSV-eGFP
Ad5-eGFP = format: cell-based, adenovirus type 5
SeV = format: cell-based, Sendai virus
DENV-2 [1] = experiment: DENV-2 infection in AG129 mice; format: in vivo; settings: 0.2 mg/kg i.p.
[2] = test system: endosomal acidification in A549 cells; experiment: Endosomal acidification, LysoSensor DND-189 flow cytometry; format: cell-based, human
V-ATPase = V-ATPase (Homo sapiens, UniProt Q9Y487); experiment: ATPase activity assay on lysate of treated cells; format: cell-based; settings: A549 cells treated 24 h; C156-P1 100 nM or 1000 nM, PHY34 100 nM, Baf-A1 100 nM; 2 µg total cell protein
DENV-2, ZIKV, and JEV = experiment: Viral binding and internalization assays; format: cell-based; settings: A549 cells, MOI 2, viral RNA by RT-qPCR
DENV-2 [3] = experiment: Time-of-drug-addition assay; format: cell-based, DENV-2 strain 16681; settings: A549 cells, DENV-2 MOI 2, 50 nM, 48 hpi
DENV-2 [4] = experiment: Colocalization of DENV E protein and Rab7A, confocal microscopy; format: cell-based, DENV-2 strain 16681; settings: A549 cells, DENV-2 MOI = 20, 50 nM, 12 h
DENV-2 [5] = settings: for SI (ratio of CC50 to EC50): DENV-2
HUVEC cells = settings: human
in vitro = settings: African green monkey
DENV-2 [6] = experiment: microbe, parasite or virus in culture; settings: Dengue virus

Chain of V-ATPase (Q9Y487 whole entry, looked up): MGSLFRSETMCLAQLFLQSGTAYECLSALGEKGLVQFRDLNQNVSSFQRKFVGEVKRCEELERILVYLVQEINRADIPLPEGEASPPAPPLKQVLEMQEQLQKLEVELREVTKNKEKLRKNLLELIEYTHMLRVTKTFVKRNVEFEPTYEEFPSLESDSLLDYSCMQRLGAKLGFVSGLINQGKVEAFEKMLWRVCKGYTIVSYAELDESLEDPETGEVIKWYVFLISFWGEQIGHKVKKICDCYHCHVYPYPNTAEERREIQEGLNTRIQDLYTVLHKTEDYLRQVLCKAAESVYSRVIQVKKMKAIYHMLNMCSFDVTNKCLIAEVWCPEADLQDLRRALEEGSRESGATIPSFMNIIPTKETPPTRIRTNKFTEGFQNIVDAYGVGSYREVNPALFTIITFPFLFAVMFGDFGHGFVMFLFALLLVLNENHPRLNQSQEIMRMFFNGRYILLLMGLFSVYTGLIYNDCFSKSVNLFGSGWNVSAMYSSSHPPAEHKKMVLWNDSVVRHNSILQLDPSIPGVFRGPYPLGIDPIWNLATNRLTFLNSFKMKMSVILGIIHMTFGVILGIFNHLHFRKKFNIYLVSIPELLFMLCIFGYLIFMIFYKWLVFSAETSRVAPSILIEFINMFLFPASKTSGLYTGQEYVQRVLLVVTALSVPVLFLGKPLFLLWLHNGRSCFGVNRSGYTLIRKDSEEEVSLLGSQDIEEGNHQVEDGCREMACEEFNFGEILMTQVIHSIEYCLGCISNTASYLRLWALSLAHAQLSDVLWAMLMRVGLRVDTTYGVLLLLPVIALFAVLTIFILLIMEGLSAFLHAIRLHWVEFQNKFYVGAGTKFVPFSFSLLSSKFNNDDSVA

Structure (SMILES): COc1cc2c(OCC#N)c3c(c(-c4ccc5c(c4)OCO5)c2cc1OC)C(=O)OC3 [Compound C156-P1]
- EC50 (DENV-1; DENV1, A549, 48 h): 8.38 nM
- EC50 (DENV-1; DENV1, Vero, 48 h): 5.76 nM
- EC50 (DENV-3; DENV3, A549, 48 h): 4.84 nM
- EC50 (DENV-3; DENV3, Vero, 48 h): 4.93 nM
- EC50 (DENV-4; DENV4, A549, 48 h): 5.31 nM
- EC50 (DENV-4; DENV4, Vero, 48 h): 5.53 nM
- EC50 (JEV; A549, 48 h): 2.63 nM
- EC50 (JEV; Vero, 48 h): 2.84 nM
- EC50 (YFV; A549, 48 h): 5.54 nM
- EC50 (YFV; Vero, 48 h): 3.94 nM
- EC50 (HCV): 5.13 nM
- EC50 (HSV-1-eGFP): 6.21 nM
- EC50 (VSV-eGFP): 9.27 nM
- Mean fluorescence intensity (MFI) of Ad5-eGFP within the cells (Ad5-eGFP): slightly increased
- Number of Ad5-eGFP-positive cells versus DMSO (Ad5-eGFP): no significant difference
- Inhibition of SeV infection (viral NP mRNA) (SeV): did not inhibit SeV infection
- Body weight of DENV-2-infected mice (DENV-2 [1]): mitigated the decline in body weight
- DENV-2 RNA load in blood (DENV-2 [1]; days 3, 5, and 7 post-infection, RT-qPCR): markedly decreased DENV-2 in the blood
- Survival rate (DENV-2 [1]; DENV-2 1 × 10^6 PFU i.p., until day 15): 60%
- Endosomal acidification (FITC intensity of LysoSensor DND-189) [2]: significantly decreased the MFI of FITC in a dose-dependent manner
- V-ATPase activity (V-ATPase): significantly reduced V-ATPase activity
- Effect on internalization or binding steps of DENV-2, ZIKV, and JEV (DENV-2, ZIKV, and JEV): did not exhibit inhibitory effects
- Intracellular viral RNA, NS3 protein and extracellular titers, before-, during- and after-incubation groups versus DMSO (DENV-2 [3]): significantly reduced levels
- Colocalization between DENV E protein and Rab7A (DENV-2 [4]): significantly enhanced the colocalization between DENV E protein and Rab7A
- SI (ratio of CC50 to EC50) (DENV-2 [5]; A549 cells): 292.65
- Extracellular DENV-2 viral titers versus DMSO (DENV-2 [5]; A549 cells, MOI = 2, 50 nM, 24, 36, and 48 hpi, focus-forming assay): significantly decreased
- DENV-2 infection (NS3 protein, Western blot) (DENV-2 [5]; A549 cells, MOI = 2, 48 h, indicated concentrations): decreased with increasing concentrations of C156-P1
- SI (ratio of CC50 to EC50) (DENV-2 [5]; HUVEC cells): 142.42
- SI (ratio of CC50 to EC50) (DENV-2 [5]; Huh7 cells): 110.09
- SI (ratio of CC50 to EC50) (DENV-2 [5]; Vero cells): 113.94
- Concentration tolerable for cytotoxicity (HUVEC cells): < 62.5 nM
- CC50 (in vitro): 431 nM
- EC50 (DENV-2 [6]; DENV2, A549, 48 h, read-out: EC50 against DENV-2): 1.36 nM
- EC50 (DENV-2 [6]; DENV2, HUVEC, 48 h, read-out: EC50 against DENV-2): 1.28 nM
- EC50 (DENV-2 [6]; DENV2, Huh-7, 48 h, read-out: EC50 against DENV-2): 4.45 nM
- EC50 (DENV-2 [6]; DENV2, Vero, 48 h, read-out: EC50 against DENV-2): 3.78 nM
- EC50 (DENV-2 [6]; DENV2, read-out: EC50 against DENV-2, bound stated in text): < 5 nM
